This note sets out measurements from patent US20130197027A1, “HETEROCYCLYL-AZABICYCLO[3.2.1]OCTANE ANALOGS AS SELECTIVE M1 AGONISTS AND METHODS OF MAKING AND USING SAME” (priority 2010, published 2013).

One may read the EC50 as the concentration at which the effect is half-maximal.

Each structure is given as a SMILES string. Changes are numbered by the printed parent chain.

One assay addresses T1, rM1 (Rattus norvegicus, UniProt P08482).
T1 construct: host or cells: CHO-K1
T1 sequence (P08482 1-460): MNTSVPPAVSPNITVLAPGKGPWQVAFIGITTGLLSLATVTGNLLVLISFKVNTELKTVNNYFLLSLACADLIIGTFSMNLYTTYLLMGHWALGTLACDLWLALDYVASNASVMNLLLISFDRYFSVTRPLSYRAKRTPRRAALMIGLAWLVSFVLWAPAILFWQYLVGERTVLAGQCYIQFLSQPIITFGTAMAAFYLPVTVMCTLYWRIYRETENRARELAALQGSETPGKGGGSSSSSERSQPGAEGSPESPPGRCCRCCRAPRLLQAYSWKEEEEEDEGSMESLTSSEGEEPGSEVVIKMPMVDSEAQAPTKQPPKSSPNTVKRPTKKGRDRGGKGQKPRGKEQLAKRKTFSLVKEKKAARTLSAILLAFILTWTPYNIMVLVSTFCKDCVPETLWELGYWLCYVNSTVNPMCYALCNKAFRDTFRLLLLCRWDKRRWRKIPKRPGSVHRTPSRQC
As to the kind of experiment: Calcium mobilization assay in CHO-K1 cells stably expressing rat M1 (low throughput, Flexstation II). It is filed as cell-based. The following applies: for Emax: RM1, read-out: Efficacy (% Max ACh). The text has this:
(§1) Chinese hamster ovary (CHO-K1) cells stably expressing rat (r) M1 were purchased from the American Type Culture Collection and cultured according to their indicated protocol. CHO cells stably expressing human (h)M2, hM3, and hM5 were described previously (Levey et al., 1991); hM1 and hM4 cDNAs were purchased from Missouri S&T cDNA Resource; rM4 cDNA was provided by T. I. Bonner (National Institutes of Health, Bethesda, Md.). hM1, hM4, and rM4 cDNAs were used to stably transfect CHO-K1 cells purchased from the American Type Culture Collection using Lipofectamine2000. To make stable hM2, hM4 and rM4 cell lines for use in calcium mobilization assays, these cells also were stably transfected with a chimeric G-protein (Gqi5) (provided by B. R. Conklin, University of California, San Francisco) using Lipofectamine 2000. rM1, hM3, and hM5 cells were grown in Ham's F-12 medium containing 10% heat-inactivated fetal bovine serum (FBS), 20 mM HEPES, and 50 μg/mL G418 sulfate. hM2-Gqi5 and hM4-Gqi5 cells were grown in the same medium also containing 500 μg/mL Hygromycin B. Stable rM4-Gqi5 cells were grown in DMEM containing 10% heat-inactivated FBS, 20 mM HEPES, 400 μg/mL G418 sulfate, and 500 μg/mL Hygromycin B. The rat M1 Y381A orthosteric mutant receptor cDNA was generated using the Quik-Change site-directed mutagenesis kit (Stratagene) and verified by sequencing. CHO-K1 cells were stably transfected with this cDNA using Lipofectamine2000 and screened for expression based on calcium mobilization in response to the allosteric M1 agonist N-desmethylclozapine.
For low throughput measurement of agonist-evoked increases in intracellular calcium, CHO-K1 cells stably expressing muscarinic receptors were plated in 100 μL of growth medium at 5×10^4 (rM1, hM3, and hM5) or 6×10^4 cells per well (rM1 Y381A, hM2, and rM4) in Costar 96-well black-walled, tissue culture (TC)-treated, clear-bottom plates (Fisher). Cells were incubated overnight at 37° C. and 5% CO2. The next day, medium was removed from the cells, and they were incubated with 50 μL of 2 μM Fluo-4/acetoxymethyl ester (Invitrogen, Carlsbad, Calif.) prepared as a 2.3 mM stock in DMSO and mixed in a 1:1 ratio with 10% (w/v) Pluronic F-127 and diluted in assay buffer [HBSS (Invitrogen) supplemented with 20 mM HEPES and 2.5 mM probenecid, pH 7.4] for 1 h at 37° C. and 5% CO2. Dye was removed and replaced with 50 μL of assay buffer. For calcium fluorescence measurements, CRCs of compounds (50 μl, 2×) were added 19 s after the beginning of data collection via a Flexstation II (Molecular Devices, Sunnyvale, Calif.). Fluorescence imaging continued for a total of 130 s acquisition time using an excitation wavelength of 488 nm, an emission wavelength of 525 nm, and a cutoff wavelength of 515 nm. All of the peaks of the calcium response were normalized to the response to a maximally effective concentration of ACh (ECmax). These normalized peak calcium response values were fit using GraphPad Prism version 4.0 to a four-parameter logistic equation to determine EC50 values.
On the technique in general: Calcium flux is commonly read through the fluorescence of an indicator in the cells.

For another assay, the target named is T2, hM1 (Homo sapiens, UniProt P11229).
T2 construct: host or cells: CHO-K1
T2 sequence (P11229 1-460): T1 sequence (P08482 1-460) with V5A, S254T, S309P, K320R, G337A, V413I
Kind of assay: Calcium mobilization assay in CHO-K1 cells stably expressing human M1 (high throughput, FDSS 6000). Type of assay: cell-based. The note with it: for Emax: HM1, read-out: Efficacy (% Max ACh).
Text: as §1
For high throughput measurement of agonist-evoked increases in intracellular calcium, CHO-K1 cells stably expressing muscarinic receptors were plated in growth medium lacking G418 and hygromycin at 15,000 cells/20 μL/well (hM1, hM2-Gqi5, hM3, hM4-Gqi5, and hM5) in Greiner 384-well black-walled, tissue culture (TC)-treated, clear-bottom plates (VWR). Cells were incubated overnight at 37° C. and 5% CO2. The next day, cells were washed using an ELX 405 (BioTek) with three washes (50 μL) of assay buffer then aspirated to 15 μL. Next, 5 μL of 8 μM Fluo-4/acetoxymethyl ester (Invitrogen, Carlsbad, Calif.) prepared as a 2.3 mM stock in DMSO and mixed in a 1:1 ratio with 10% (w/v) Pluronic F-127 and diluted in assay buffer was added to the wells and the cell plates were incubated for 45 min at 37° C. and 5% CO2. Dye was removed by washing with the ELX 405 (three 50 μL washes of assay buffer) then aspirated to 20 μL. Agonist and compound master plates were formatted in an 11 point CRC format (1:3 dilutions) in 100% DMSO with a starting concentration of 10 mM using the BRAVO liquid handler (Agilent). Test compound CRCs were then transferred to daughter plates ([…]) using the Echo acoustic plate reformatter (Labcyte, Sunnyvale, Calif.) and then diluted into assay buffer (40 μL) to a 2× stock using a Thermo Fisher Combi (Thermo Fisher Scientific, Waltham, Mass.). Calcium flux was measured using the Functional Drug Screening System (FDSS) 6000 (Hamamatsu Corporation, Tokyo, Japan) as an increase in the fluorescent static ratio. 20 μL of Agonist Compounds were applied to cells using the automated system of the FDSS 6000 at 4 s into the 300 s protocol and the data were collected at 1 Hz. Concentration-response curves were generated using a four-parameter logistical equation in XLfit curve fitting software (IDBS, Bridgewater, N.J.) for Excel (Microsoft, Redmond, Wash.) or Prism (GraphPad Software, Inc., San Diego, Calif.).

`CCOC(=O)N1C2CCC1CC(N1CCC[C@@H](NC(=O)c3cccc(OC)c3)C1)C2` (stereo partly drawn) [Example 4, ethyl 3-((R)-3-(3-methoxybenzamido)piperidin-1-yl)-8-azabicyclo[3.2.1]octane-8-carboxylate]: on rM1, the EC50 was 52 nM and the Emax is 94%. Moreover, on hM1, the concentration for a half-maximal effect (EC50) was 250 nM and the Emax worked out at 76%.
The like results for `CCOC(=O)N1C2CCC1CC(N1CCC[C@@H](NC(=O)c3ccccc3Cl)C1)C2` (stereo partly drawn) [Example 7, ethyl 3-((R)-3-(2-chlorobenzamido)piperidin-1-yl)-8-azabicyclo[3.2.1]octane-8-carboxylate] were, in that order, 39 nM, 94%, 570 nM and 61%.
